Data on nine molecules can be found in patent US10435697B2, “Recombinant expression system that senses pathogenic microorganisms” (priority 2014, dated 2019).

The test system of assay [1] is CqsS/CAI-1 quorum-sensing phosphorelay system of V. cholerae. The experiment in a line: CAI-1 sensing by two-plasmid system (CqsS, LuxU, LuxO; GFP under pQrr4). It counts as cell-based, Vibrio cholerae. The following applies: LuxO induced by arabinose. From the text: In the test construct the pBAD promoter drives LuxO. […] This is due to the downregulation of pQrr4 promoter by the CqsS cascade originating form V. cholera. In contrast, no alteration of GFP expression was observed when arabinose was present, but CAI-1 was absent. […] The system is inducible by arabinose in order to add an additional level of control.
In the next step, a double plasmid system, with the CqsS (SEQ ID NO 6), LuxU (SEQ ID NO 7) and LuxO (SEQ ID NO 8) genes expressed on one plasmid and GFP (SEQ ID NO) under pQrr4 promoter (SEQ ID NO 19) on another was generated. Thus, this system comprises the CAI-1 sensor module, in which phosphorylated LuxO activates the Qrr4 promoter. In the test construct the pBAD promoter drives LuxO, which is inducible by arabinose.
In other words, the system changes its fluorescence with different concentrations of CAI-1.

In assay [2] the test system is V. cholerae. The following applies: previously shown (Da Silva 2008; Moghaddam 2012; Yaraksa 2014); cited from earlier work.
The test system of assay [3] is E. coli Top10. In words: Growth curves (OD600) of E. coli Top10 after induced expression of the peptide from a plasmid. It counts as cell-based, Escherichia coli. The source says:
To evaluate the activity of Microcin S (mcsS) and Microcin immunity protein (mcsI) in E. coli Top10 cells five different plasmids were constructed (FIG. 10).
Moreover, also the effect of Microcin immunity protein (mcsI) in the presence of Microcin S was studied. For this, the mcsI gene was introduced into the pBbE8K+McsS-YebF-I and pBbE8K+McsS-I plasmids resulting in pBbE8K+McsI+McsS-YebF-II and pBbE8K+McsI+McsS-II, respectively. In these constructs, mcsS expression is controlled by an araC pBAD activator-promoter (SEQ ID NO), rendering Microcin S expression inducible by L-arabinose. In contrast, mcsI expression is constitutively ON when using the rrnB promoter (SEQ ID NO 28).
Furthermore, also the effect of Microcin whole cascade in E. coli Top10 growing in liquid culture with 0.125% arabinose and without arabinose after being transformed with construct 5 of FIG. 12 was studied.
For example, in the case of CM11 (P3) the P3 gene was cloned under the arabinose promoter (pBAD) in the pBbE8K vector resulting in the pBbE8K+P3 plasmid. In other words, P3 expression in this construct is controlled by an araC PBAD activator-promoter, rendering P3 expression inducible by L-arabinose.
In addition, in order to characterize the lysis activity in E. coli, the lysis E7 gene was cloned under the tetracycline promoter (pTet) in the pBbA2C vector resulting in the pBbA2C+E7 plasmid.

The subject of assay [4] is pathogenic E. coli. The following applies: Yaraksa et al. 2014; cited from earlier work.
Assay [5] relates to V. cholerae (A1522 Rugose-GFP). In kind it is cell-based, Vibrio cholerae. Conditions: LB broth, 18-20 h at 37° C., absorbance and GFP fluorescence monitored, DMSO control. As to the method: […]. The target cells were effectively killed at an MIC of 50 μM. As a control only DMSO was used. As the target cells express GFP embedded into its chromosome, the GFP fluorescence (B) along with the absorbance (growth) (A) was monitored in this experiment.
(§1) Moreover, a minimum inhibitory concentration (MIC) assay was conducted using CM11 (P3). The medium used for the broth microdilution test was LB Broth and the cells were V. cholera A1522-Rugose-GFP and E. coli Nissile strains. Overnight cultures were transferred into 5 ml of LB and were grown at 37° C. for 2-3 h. To approximate the density of 0.5 McFarland standard, this suspension with the inoculum concentration of 108 colony forming units (CFU/ml) was then diluted to 106 CFU/ml with the LB broth. Peptide P3 stock solution of 1000 μg/ml was prepared using DMSO. Serial two-fold dilutions of the peptide (P3) with the following concentration (2-100 μg/ml) were prepared with LB broth and placed in 96-well microtiter plates and the lowest concentration inhibiting visible growth after 18-20 h at 37° C. was recorded as MIC (see FIGS. 16 and 17).

In assay [6] the test system is E. coli Nissile. It counts as cell-based, Escherichia coli. Conditions: LB broth, 18-20 h at 37° C., DMSO control. The procedure: FIG. 17 MIC of the synthetic peptide CM11 (P3) against E. coli Nissile. […] As a control only DMSO was used.
as §1

The test system of assay [7] is V. cholerae. The experiment in a line: Microbroth dilution assay of purified Microcin S on V. cholerae. It counts as cell-based, Vibrio cholerae. The procedure:
(§2) In addition, the Microcin S peptide was purified to test its efficacy on V. cholerae and E. coli. […] Subsequently, the cells were pelleted by centrifugation at 4000 g for 20 min and lysed using a sonicator. Purification of Microcin S was carried out using Qiagen Ni-NTA fast start kit. The eluate was dialysed using Slide-A-Lyzer dialysis cassette and a 2 KDa cutoff (Life Technologies) for 4 hrs in 1×PBS. The dialysed samples were concentrated by ultra filtration using a molecular mass cutoff membrane (Amicon Ultra-15 Centrifugal Filter Unit, Millipore). As the estimated size of the protein is approximately 12 kDa, the first concentration was done using a 30 kDa cutoff membrane where the flow-through was collected and subsequently passed through a 3 kDa cutoff membrane. The resulting retentate was collected and the concentration was quantified using Quant-IT protein assay kit (Life Technologies).
(§3) The induced sample expressed has Microcin S (FIG. 13B) and the fluorescence reading from the Quant-it assay was 1135, which was close to a concentration of 200 ng/μl, calculated from the standard curve (FIG. 13A). […] After the presence of Microcin S was confirmed from the purified sample, a microbroth dilution assay was carried out to measure the minimum inhibitory concentration of purified Microcin S on V. cholerae and E. coli. […]
Background: Dilution methods test growth across graded concentrations, often in twofold steps.

The test system of assay [8] is E. coli wt. The experiment in a line: Microbroth dilution assay of purified Microcin S on E. coli. It counts as cell-based, Escherichia coli. As to the method:
as §2, §3

The mark [9] stands for this setting: expression induced with 0.125% L-arabinose (pBAD), vs un-induced.

Ends that are not written are not given here.

Regarding `CCCCCCCCCC(=O)[C@@H](O)CC` [CAI-1, (S)-3-hydroxytridecan-4-one], the “GFP expression on addition of CAI-1” value in assay [1] was “a drop in the GFP expression was observed”.

As for CM15 (KWKLFKKIGAVLKVL-NH2), the “activity against V. cholerae” value in assay [2] is reported as “show inhibitory activity”.

On to G12.21 (RRVSRRPMRRYRSRRPRRLV), for which the “activity against V. cholerae” value in assay [2] is “effectively control the growth of V. cholerae both in vitro and in vivo”.

Turning to G14.15 (GRSRWRRVSRRFMRR), the “activity against V. cholerae” value in assay [2] was “effectively control the growth of V. cholerae both in vitro and in vivo”.

On to “Lysis E7 (MKKITGIILLLLAAIILAACQANYIRDVQGGTVSPSSTAELTGVETQ; Secretory peptide)”, for which the “time to lyse E. coli” value in assay [3] (200 nM atc) is not above 4 h. Besides, in assay [3] (pBbA2C+E7, 200 nM anhydrotetracycline, vs un-induced), the “OD600 of host cell after induction (lysis)” value is given as “reduced significantly due to the lysis”.

In the case of “Magainin 2 (GIGKFLHSAKKFGKAFVGEIMNS; listed as Xenopus laevis)”, the “activity against V. cholerae” value in assay [2] was “good killing efficiency”. Also, the “activity against pathogenic E. coli” value in assay [4] is given as “good killing efficiency”.

As for McsS-YebF, in assay [3] (setting [9]), the “growth (OD600) of host cell after induction” value (“growth (OD600) of host cell” for short) is “complete growth inhibition”.

As usually defined, the MIC is the smallest concentration in the dilution series that meets the test's criterion for growth inhibition. A higher MIC goes with weaker potency. WKLFKKILKVL-NH2 [CM11]: the MIC in assay [5] is 50 µM; in assay [6], 25 µM. Also, the “growth (OD600) of host cell” value was “reduces the growth of E. coli” in assay [3] (pBbE8K+P3, induced with 0.2% L-arabinose, vs un-induced, listed as CM11 (P3)) and “reduced significantly” in assay [3] (pBbE8K+P3, induced with 0.2% L-arabinose, vs un-induced, listed as P3). The “activity against V. cholerae” value in assay [2] is given as “show inhibitory activity”.

B1: Microcin S (protein, listed as Escherichia coli)
chain: MSNIRELSFDEIALVSGGNANSNYEGGGSRSRNTGARNSLGRNAPTHIYSDPSTVKCANAVFSGMVGGAIKGGPVGMTRGTIGGAVIGQCLSGGGNGNGGGNRAGSSNCSGSNVGGTCSR
For B1, the “growth (OD600) of host cell” value is given as “reduced OD600 readings” in assay [3] (setting [9]) and “complete growth inhibition” in assay [3] (expression induced with 0.125% L-arabinose (pBAD), vs un-induced, listed as McsS). Besides, the inhibitory activity entry in assay [7] and in assay [8] was “has inhibitory activity” throughout. Moreover, the Minimal inhibition concentration in assay [7] (LB broth, 4 hrs, OD) amounted to 100 µg/mL; in assay [8] (LB broth, 4 hrs, OD) it was 100 µg/mL.
